Experimental data published in US20250186437A1, “CARBOLINE COMPOUNDS AND USE THEREOF” (PTC Therapeutics, Inc., priority 2021, published 2025).

Test system: MOLM-13 cells
Experiment: MOLM-13 Cell Proliferation Assay (indicator of DHODH inhibition)
Format: cell-based
Settings: Homo sapiens, 72 Hours of culture, CellTiter-Glo, no uridine
In short: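 Low-passage MOLM-13 cells (10^4/well) in RPMI 1640 + 10% FBS exposed to compound (0.5% DMSO final) for 72 h at 37 °C, 5% CO2. Viability read by CellTiter-Glo luminescence; growth reflects de novo pyrimidine synthesis dependent on DHODH.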

Going from FC(F)(F)c1nc(N2CCc3c([nH]c4ccc(Cl)cc34)C2c2ccc(N3CCOCC3)nc2)nc(C(F)(F)F)n1 (stereo not drawn) [Compound 404, 2-[4,6-bis(trifluoromethyl)-1,3,5-triazin-2-yl]-6-chloro-1-[6-(morpholin-4-yl)pyridin-3-yl]-2,3,4,9-tetrahydro-1H-pyrido[3,4-b]indole] to CSc1nc(N2CCc3c([nH]c4ccc(Cl)cc34)[C@@H]2c2ccc(N3CCN(C)CC3)nc2)nc(C(F)(F)F)n1 [Compound 489, (1S)-6-chloro-1-[6-(4-methylpiperazin-1-yl)pyridin-3-yl]-2-[4-(methylsulfanyl)-6-(trifluoromethyl)-1,3,5-triazin-2-yl]-2,3,4,9-tetrahydro-1H-pyrido[3,4-b]indole], the IC50 rises from 0.4 nM to 1.6 nM (4-fold). The first is the more potent here.

Cc1ccc([C@H]2c3[nH]c4ccc([N+](=O)[O-])cc4c3CCN2c2nc(C(F)(F)F)nc(C(F)(F)F)n2)c(F)c1F [Compound 527, (1S)-2-[4,6-bis(trifluoromethyl)-1,3,5-triazin-2-yl]-1-(2,3-difluoro-4-methylphenyl)-6-nitro-2,3,4,9-tetrahydro-1H-pyrido[3,4-b]indole] and Cc1ccc([C@H]2c3[nH]c4ccc(Cl)cc4c3CCN2c2ncnc(C(F)(F)F)n2)c(F)c1F [Compound 461, (1S)-6-chloro-1-(2,3-difluoro-4-methylphenyl)-2-[4-(trifluoromethyl)-1,3,5-triazin-2-yl]-2,3,4,9-tetrahydro-1H-pyrido[3,4-b]indole] are within 1.5-fold of each other in IC50: 0.6 nM for the first, 0.8 nM for the second.

Compared with CN1CCN(c2ncc([C@H]3c4[nH]c5ccc(Cl)cc5c4CCN3c3nc(C(F)F)nc(C(F)(F)F)n3)cn2)CC1 [Compound 508, (1S)-6-chloro-2-[4-(difluoromethyl)-6-(trifluoromethyl)-1,3,5-triazin-2-yl]-1-[2-(4-methylpiperazin-1-yl)pyrimidin-5-yl]-2,3,4,9-tetrahydro-1H-pyrido[3,4-b]indole], Cc1nc(C)nc(N2CCc3c([nH]c4ccc(Cl)cc34)C2c2cnc(N3CCN(C)CC3)nc2)n1 (stereo not drawn) [Compound 380, 6-chloro-2-(4,6-dimethyl-1,3,5-triazin-2-yl)-1-[2-(4-methylpiperazin-1-yl)pyrimidin-5-yl]-2,3,4,9-tetrahydro-1H-pyrido[3,4-b]indole] is 33-fold higher in IC50: 0.8 nM for the first, 26.3 nM for the second.

Compared with Cc1ccc(C2c3[nH]c4cc(F)c(Cl)cc4c3CCN2c2nc(C)cc(C(F)(F)F)n2)cc1 (stereo not drawn) [Compound 96, 6-chloro-7-fluoro-1-(4-methylphenyl)-2-[4-methyl-6-(trifluoromethyl)pyrimidin-2-yl]-2,3,4,9-tetrahydro-1H-pyrido[3,4-b]indole], Cc1ccc(C2c3[nH]c4cc(F)c(Cl)cc4c3CCN2c2nc(Cl)cc(N(C)C)n2)cc1 (stereo not drawn) [Cpd 17, 6-chloro-2-[6-chloro-7-fluoro-1-(4-methylphenyl)-1,3,4,9-tetrahydro-2H-pyrido[3,4-b]indol-2-yl]-N,N-dimethylpyrimidin-4-amine] is 9.7-fold higher in IC50: 1.9 nM for the first, 18.4 nM for the second. The first is the more potent here.

Compared with Cc1nc(N2CCc3c([nH]c4ccc(Cl)cc34)[C@@H]2c2ccc(N3CCOCC3)nc2)nc(C#N)c1F [Compound 424, 2-{(1S)-6-chloro-1-[6-(morpholin-4-yl)pyridin-3-yl]-1,3,4,9-tetrahydro-2H-pyrido[3,4-b]indol-2-yl}-5-fluoro-6-methylpyrimidine-4-carbonitrile], Cc1cc(C)nc(N2CCc3c([nH]c4ccc(Cl)cc34)C2c2cnc(N3CCOCC3)nc2)n1 (stereo not drawn) [Compound 308, 6-chloro-2-(4,6-dimethylpyrimidin-2-yl)-1-[2-(morpholin-4-yl)pyrimidin-5-yl]-2,3,4,9-tetrahydro-1H-pyrido[3,4-b]indole] is 1.9-fold higher in IC50: 2 nM for the first, 3.8 nM for the second.

Compared with Cc1ccc(C2c3[nH]c4ccc(Cl)cc4c3CCN2c2nncc(C(F)(F)F)n2)cc1 (stereo not drawn) [Compound 430, 6-chloro-1-(4-methylphenyl)-2-[5-(trifluoromethyl)-1,2,4-triazin-3-yl]-2,3,4,9-tetrahydro-1H-pyrido[3,4-b]indole], Cc1ccc(C2c3[nH]c4ccc(Cl)cc4c3CCN2c2nncc(C(F)(F)F)n2)c(F)c1F (stereo not drawn) [Compound 403, 6-chloro-1-(2,3-difluoro-4-methylphenyl)-2-[5-(trifluoromethyl)-1,2,4-triazin-3-yl]-2,3,4,9-tetrahydro-1H-pyrido[3,4-b]indole] is 2.6-fold lower in IC50: 1.8 nM for the first, 0.7 nM for the second.

Compared with COCCOc1ncc(C2c3[nH]c4ccc(Cl)cc4c3CCN2c2nc(C(F)(F)F)nc(C(F)(F)F)n2)cn1 (stereo not drawn) [Compound 536, 2-[4,6-bis(trifluoromethyl)-1,3,5-triazin-2-yl]-6-chloro-1-[2-(2-methoxyethoxy)pyrimidin-5-yl]-2,3,4,9-tetrahydro-1H-pyrido[3,4-b]indole], C[C@@H]1CN(c2ncc([C@H]3c4[nH]c5ccc(Cl)cc5c4CCN3c3nc(C(F)(F)F)cc(C(F)(F)F)n3)cn2)CCN1 [Compound 511, (1S)-2-[4,6-bis(trifluoromethyl)pyrimidin-2-yl]-6-chloro-1-{2-[(3R)-3-methylpiperazin-1-yl]pyrimidin-5-yl}-2,3,4,9-tetrahydro-1H-pyrido[3,4-b]indole] is 3.2-fold higher in IC50: 1.2 nM for the first, 3.8 nM for the second. The first is the more potent here.

Compared with Cc1nc(N2CCc3c([nH]c4ccc(Cl)c(F)c34)C2c2cccc(F)c2F)nc(C)c1F (stereo not drawn) [Compound 117, 6-chloro-1-(2,3-difluorophenyl)-5-fluoro-2-(5-fluoro-4,6-dimethylpyrimidin-2-yl)-2,3,4,9-tetrahydro-1H-pyrido[3,4-b]indole], Cc1cc(C(F)(F)F)nc(N2CCc3c([nH]c4ccc(Cl)c(F)c34)C2c2ccc(C)c(F)c2F)n1 (stereo not drawn) [Compound 206, 6-chloro-1-(2,3-difluoro-4-methylphenyl)-5-fluoro-2-[4-methyl-6-(trifluoromethyl)pyrimidin-2-yl]-2,3,4,9-tetrahydro-1H-pyrido[3,4-b]indole] is 5-fold lower in IC50: 2 nM for the first, 0.4 nM for the second. The second is the more potent here.

Going from Cc1ccc(C2c3[nH]c4cc(F)c(Cl)cc4c3CCN2c2ncc(F)c(C#N)n2)cc1 (stereo not drawn) [Compound 175, 2-[6-chloro-7-fluoro-1-(4-methylphenyl)-1,3,4,9-tetrahydro-2H-pyrido[3,4-b]indol-2-yl]-5-fluoropyrimidine-4-carbonitrile] to N#Cc1ccc(C2c3[nH]c4cc(F)c(Cl)cc4c3CCN2c2nccc(Cl)n2)cc1 (stereo not drawn) [Compound 18, 4-[6-chloro-2-(4-chloropyrimidin-2-yl)-7-fluoro-2,3,4,9-tetrahydro-1H-pyrido[3,4-b]indol-1-yl]benzonitrile], the IC50 rises from 4.7 nM to 13.5 nM (2.9-fold). The first is the more potent here.

Going from Fc1ccc(C2c3[nH]c4cc(F)c(Cl)cc4c3CCN2c2ncc(C(F)(F)F)cn2)cc1 (stereo not drawn) [Compound 98, 6-chloro-7-fluoro-1-(4-fluorophenyl)-2-[5-(trifluoromethyl)pyrimidin-2-yl]-2,3,4,9-tetrahydro-1H-pyrido[3,4-b]indole] to NS(=O)(=O)c1ccc(C2c3[nH]c4cc(F)c(Cl)cc4c3CCN2c2nccc(C(F)(F)F)n2)cc1 (stereo not drawn) [Compound 115, 4-{6-chloro-7-fluoro-2-[4-(trifluoromethyl)pyrimidin-2-yl]-2,3,4,9-tetrahydro-1H-pyrido[3,4-b]indol-1-yl}benzene-1-sulfonamide], the IC50 falls from 41.6 nM to 9.4 nM (4.4-fold). The second is the more potent here.

First: Cc1nc(C)nc(N2CCc3c([nH]c4ccc(-n5nccn5)cc34)C2c2cnc(N3CCOCC3)nc2)n1 (stereo not drawn) [Compound 300, 2-(4,6-dimethyl-1,3,5-triazin-2-yl)-1-[2-(morpholin-4-yl)pyrimidin-5-yl]-6-(2H-1,2,3-triazol-2-yl)-2,3,4,9-tetrahydro-1H-pyrido[3,4-b]indole]
Second: FC(F)c1ccnc(N2CCc3c([nH]c4ccc(Cl)cc34)C2c2cnc(N3CCOCC3)nc2)n1 (stereo not drawn) [Compound 334, 6-chloro-2-[4-(difluoromethyl)pyrimidin-2-yl]-1-[2-(morpholin-4-yl)pyrimidin-5-yl]-2,3,4,9-tetrahydro-1H-pyrido[3,4-b]indole]
The IC50 of the first is 1.6-fold higher: 20.5 nM for the first, 13 nM for the second.

Compared with Cc1ccc(C2c3[nH]c4ccc(Cl)c(F)c4c3CCN2c2nccc(Cl)n2)cc1 (stereo not drawn) [Compound 28, 6-chloro-2-(4-chloropyrimidin-2-yl)-5-fluoro-1-(4-methylphenyl)-2,3,4,9-tetrahydro-1H-pyrido[3,4-b]indole], Cc1ccc(C2c3[nH]c4ccc(C)c(F)c4c3CCN2c2nccc(C(F)(F)F)n2)cc1 (stereo not drawn) [Compound 174, 5-fluoro-6-methyl-1-(4-methylphenyl)-2-[4-(trifluoromethyl)pyrimidin-2-yl]-2,3,4,9-tetrahydro-1H-pyrido[3,4-b]indole] is 1.8-fold higher in IC50: 4.4 nM for the first, 7.8 nM for the second.

Compared with N#Cc1ccc(C2c3[nH]c4cc(F)c(Cl)cc4c3CCN2c2nccc(C#N)n2)cc1 (stereo not drawn) [Compound 64, 2-[6-chloro-1-(4-cyanophenyl)-7-fluoro-1,3,4,9-tetrahydro-2H-pyrido[3,4-b]indol-2-yl]pyrimidine-4-carbonitrile], CN(C)c1ccc(C2c3[nH]c4cc(F)c(Cl)cc4c3CCN2c2nccc(C(F)(F)F)n2)cn1 (stereo not drawn) [Compound 122, 5-{6-chloro-7-fluoro-2-[4-(trifluoromethyl)pyrimidin-2-yl]-2,3,4,9-tetrahydro-1H-pyrido[3,4-b]indol-1-yl}-N,N-dimethylpyridin-2-amine] is 8.2-fold lower in IC50: 67.5 nM for the first, 8.2 nM for the second.

Going from Cc1ccc(C2c3[nH]c4cc(F)c(Cl)cc4c3CCN2c2ncc(Cl)cn2)c(F)c1F (stereo not drawn) [Compound 130, 6-chloro-2-(5-chloropyrimidin-2-yl)-1-(2,3-difluoro-4-methylphenyl)-7-fluoro-2,3,4,9-tetrahydro-1H-pyrido[3,4-b]indole] to Cc1ccc([C@@H]2c3[nH]c4ccc(Cl)cc4c3CCN2c2ncc(F)cn2)c(F)c1F [Compound 179, (1R)-6-chloro-1-(2,3-difluoro-4-methylphenyl)-2-(5-fluoropyrimidin-2-yl)-2,3,4,9-tetrahydro-1H-pyrido[3,4-b]indole], the IC50 rises from 5.8 nM to 23.2 nM (4-fold). The first is the more potent here.

First: Fc1cc2[nH]c3c(c2cc1Cl)CCN(c1nccc(C(F)(F)F)n1)C3c1ccc(Br)c(F)c1F (stereo not drawn) [Compound 172, 1-(4-bromo-2,3-difluorophenyl)-6-chloro-7-fluoro-2-[4-(trifluoromethyl)pyrimidin-2-yl]-2,3,4,9-tetrahydro-1H-pyrido[3,4-b]indole]
Second: Fc1c(Cl)ccc2[nH]c3c(c12)CCN(c1ncc(Cl)cn1)C3c1ccc(Cl)cc1 (stereo not drawn) [Compound 27, 6-chloro-1-(4-chlorophenyl)-2-(5-chloropyrimidin-2-yl)-5-fluoro-2,3,4,9-tetrahydro-1H-pyrido[3,4-b]indole]
The IC50 of the first is 12-fold lower: 1.5 nM for the first, 17.6 nM for the second.
